This note sets out measurements from US6403594B1, “Benzopyran derivatives” (Recordati, S.A. Chemical and Pharmaceutical Company, priority 1999, dated 2002).

The target in assay [1] is T1, α1L adrenoceptor (Oryctolagus cuniculus, UniProt O02824).
T1 sequence (O02824 1-466): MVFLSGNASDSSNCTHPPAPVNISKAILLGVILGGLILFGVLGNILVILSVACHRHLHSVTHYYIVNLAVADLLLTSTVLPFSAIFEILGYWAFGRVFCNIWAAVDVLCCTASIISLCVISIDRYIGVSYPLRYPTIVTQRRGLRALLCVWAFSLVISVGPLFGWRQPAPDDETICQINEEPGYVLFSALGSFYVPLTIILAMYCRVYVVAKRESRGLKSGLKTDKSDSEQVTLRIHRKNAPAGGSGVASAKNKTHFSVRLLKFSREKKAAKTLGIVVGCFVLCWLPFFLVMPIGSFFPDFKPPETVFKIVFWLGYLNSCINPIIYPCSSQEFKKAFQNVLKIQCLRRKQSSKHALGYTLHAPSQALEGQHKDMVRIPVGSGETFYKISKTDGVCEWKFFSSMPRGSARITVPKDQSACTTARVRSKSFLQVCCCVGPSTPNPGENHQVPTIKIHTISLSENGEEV
As to the kind of experiment: Functional antagonism of noradrenaline-induced contractions of rabbit aorta pretreated with chloroethylclonidine. It is filed as biochemical. As to conditions: NA-induced contractions of rabbit aorta pretreated with chloroethylclonidine. As to the method: Adult male New Zealand rabbits were sacrificed by cervical dislocation. The aorta was removed, placed in Krebs-Henseleit buffer and dissected free of adhering tissue. […] Desmethylimipramine (0.1 μm) and corticosterone (1 μM) to block neuronal and extraneuronal uptake of NA, (±)-propranol (1 μM) to block β adrenoceptors and yohimbine (0.1 μM) to block α2 adrenoceptors, were added to the buffer.
The preparations were allowed to equilibrate for 60 minutes and then primed every thirty minutes with 10 μM NA for three times. The aortic rings were then incubated with the alkylating agent chloroethylclonidine (5×10^−5 M) for 30 minutes and then washed extensively three times (in 0.5 hours) before constructing the NA-concentration/response curve. After washout of NA and re-equilibration of the tissue (45 minutes), the drug to be tested was added and, after 30 minutes, a second NA-cumulative-concentration/response curve constructed.
Each antagonist concentration was tested using 2-3 aortic rings from different rabbits.
Dose ratios (i.e., the ratio between the concentrations of NA required to produce half-maximal response in the presence and in the absence of the test antagonist) were calculated for each concentration of the compounds. The logarithm of these dose ratio-1 was plotted against the logarithm of the compound concentrations (Schild plot) to evaluate the affinity constant Kb.
When only one or two concentrations of the test compounds were utilised, the apparent Kb value was calculated using the formula: Kb=[B]/(DOSE RATIO-1), where B is the antagonist concentration.

Assay [2] concerns the target T2, α1d-adrenoceptor (recombinant) (Homo sapiens, UniProt P25100).
T2 sequence (P25100 1-572): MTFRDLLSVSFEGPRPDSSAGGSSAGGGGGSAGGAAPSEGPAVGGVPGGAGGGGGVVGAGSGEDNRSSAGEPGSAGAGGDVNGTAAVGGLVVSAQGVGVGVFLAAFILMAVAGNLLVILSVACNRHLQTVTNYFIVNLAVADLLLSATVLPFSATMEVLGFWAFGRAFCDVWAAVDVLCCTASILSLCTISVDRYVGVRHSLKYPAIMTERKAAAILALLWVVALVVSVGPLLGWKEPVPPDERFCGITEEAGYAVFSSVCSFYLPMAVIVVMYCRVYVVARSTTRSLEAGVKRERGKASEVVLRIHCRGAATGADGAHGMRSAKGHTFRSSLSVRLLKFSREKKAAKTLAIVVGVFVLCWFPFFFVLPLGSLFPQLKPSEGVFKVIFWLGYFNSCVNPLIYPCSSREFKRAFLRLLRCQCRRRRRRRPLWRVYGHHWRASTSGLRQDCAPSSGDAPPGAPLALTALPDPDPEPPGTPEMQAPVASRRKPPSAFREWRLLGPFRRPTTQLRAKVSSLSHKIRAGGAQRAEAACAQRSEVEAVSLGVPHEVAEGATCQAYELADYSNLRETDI
As to the kind of experiment: Radioligand binding, cloned α1d-adrenoceptor ([3H]prazosin). As to conditions: read-out: Affinity for recombinant α1d-adrenoceptor, cloned receptors (Ki).

Assay [3] concerns the target T3, 5HT1A-serotoninergic receptor (Homo sapiens, UniProt P08908).
T3 sequence (P08908 1-422): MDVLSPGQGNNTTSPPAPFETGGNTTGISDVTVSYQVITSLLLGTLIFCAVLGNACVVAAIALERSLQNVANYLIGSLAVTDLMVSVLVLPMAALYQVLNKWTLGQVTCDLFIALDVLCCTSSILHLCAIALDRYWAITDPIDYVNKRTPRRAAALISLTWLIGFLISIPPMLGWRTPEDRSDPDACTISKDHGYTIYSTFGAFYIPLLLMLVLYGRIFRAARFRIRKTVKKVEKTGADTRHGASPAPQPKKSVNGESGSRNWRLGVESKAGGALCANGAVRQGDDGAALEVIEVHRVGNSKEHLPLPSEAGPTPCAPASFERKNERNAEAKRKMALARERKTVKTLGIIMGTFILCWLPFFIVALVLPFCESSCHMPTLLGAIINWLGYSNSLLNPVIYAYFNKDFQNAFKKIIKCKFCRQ
As to the kind of experiment: Radioligand binding, cloned 5-HT1A-serotoninergic receptor in HeLa membranes ([3H]8-OH-DPAT). Details: expressed in transfected cells; host or cells: HeLa. As to conditions: cloned human 5-HT1A receptor in HeLa membranes, mean Ki, read-out: Affinity for 5-HT1A receptor, cloned receptors (Ki).

Usually Ki stands for the equilibrium dissociation constant of an inhibitor or competing ligand from its target.

In the case of `COc1ccc(Cl)cc1N1CCN(CCCNC(=O)c2cccc3c(=O)c(C)c(C(N)=O)oc23)CC1` [Example 1, 2-Carbamoyl-8-{3-[4-(5-chloro-2-methoxyphenyl)-1-piperazinyl]-propylcarbamoyl}-3-methyl-4-oxo-4H-1-benzopyran], the “Functional affinity for the α1L adrenoceptor subtype, pKb” value in assay [1] was 8.27. The inhibition constant (Ki) in assay [2] came out at 57.4 nM; in assay [3], 17.2 nM.

As to `CCOC(=O)c1oc2c(C(=O)NCCCN3CCN(c4cc(Cl)ccc4OC)CC3)cccc2c(=O)c1C` [Example 4, 2-Ethoxycarbonyl-8-{3-[4-(5-chloro-2-methoxyphenyl)-1-piperazinyl]-propylcarbamoyl}-3-methyl-4-oxo-4H-1-benzopyran], in assay [1], the “Functional affinity for the α1L adrenoceptor subtype, pKb” value was 8.47. Moreover, the Ki in assay [2] is 2.75 nM; in assay [3], 15.2 nM.
